# Test system: LpxC enzyme
# Assay: LpxC enzyme assay (RapidFire high-throughput mass spectrometry)
# Format: biochemical
# Details: concentration 0.10 (unit not given)
# Experimental: The standard LpxC assay consists of 0.2 nM LpxC enzyme, 1.0 μM UDP-3-O—(R-3-hydroxymyristoyl)-N-acetylglucosamine, and test compound, in assay buffer and 2% DMSO. Assay buffer is comprised of 25 mM HEPES, pH 7.3, 150 mM NaCl, 2.0 mM DTT, and 0.01% BSA. The enzyme reaction is carried out in a 96-well assay plate, in a final volume of 102 μL. Solutions of test compounds are prepared in 100% DMSO. Reaction additions, in order, are (1) 2.0 μL compound solution, (2) 80 μL of assay buffer, (3) 10 μL of 10 μM UDP-3-O—(R-3-hydroxymyristoyl)-N-acetylglucosamine (in assay buffer) and, (4) 10 μL of LpxC enzyme (20 nM in assay buffer) to initiate the reaction. In positive control reactions, addition (1) has 2.0 μL of 100% DMSO (without compound); these reactions are used as the total signal (TSB) value. Reactions are incubated at room temperature for 60 minutes when 10 μL of 1 N HCl is added to stop the reaction. The plate is shaken by hand for 10 seconds to ensure complete quenching. Assay plates are sealed with foil tape, and stored at −80° C. for 24-48 hr prior to analysis.
# The concentrations of substrate and product in the reaction mixtures are determined with BioTrove's proprietary RapidFire™ high-throughput mass spectrometry (HTMS). Assay mixtures are partially purified with reverse phase chromatography, where they are washed with water containing 5 mM ammonium formate and eluted onto the mass spectrometer in 80% acetonitrile, 20% water, and 5 mM ammonium formate. The mass spectrometry peak areas of the substrate and product are measured to determine the concentration of these analytes. The assay signal is the percentage of substrate that is converted to product. Percent inhibition, % I, in test samples is determined from the following equation: […]
row,Structure (SMILES),LpxC enzyme assay rating (% inhibition at indicated concentrations)
1,CN(C)C(=O)[C@H](O)[C@@H](O)C(=O)n1ccc2cc(C#Cc3ccccc3)ccc21 [Compound 44],C (less than 10% inhibition)
2,CN(C)C(=O)[C@H](O)[C@@H](O)C(=O)Nc1ccc(-c2ccccc2)cc1 [Compound 45],C (less than 10% inhibition)
3,CN(C)C(=O)[C@H](O)[C@@H](O)C(=O)Nc1ccc(-c2ccc(C(F)(F)F)cc2)cc1 [Compound 46],C (less than 10% inhibition)
4,CN(C)C(=O)[C@H](O)[C@@H](O)C(=O)N1CCN(c2ccc(-c3ccccc3)cc2)CC1 [Compound 47],B (10-30% inhibition)
5,CCCCc1ccc(NC(=O)[C@H](O)[C@@H](O)C(=O)N(C)C)cc1 [Compound 48],B (10-30% inhibition)

# Same assay, conditions: concentration 0.20 (unit not given)
row,Structure (SMILES),LpxC enzyme assay rating (% inhibition at indicated concentrations)
1,CN(C)C(=O)[C@H](O)[C@@H](O)C(=O)n1ccc2cc(C#Cc3ccccc3)ccc21 [Compound 44],B (10-30% inhibition)
2,CN(C)C(=O)[C@H](O)[C@@H](O)C(=O)Nc1ccc(-c2ccccc2)cc1 [Compound 45],C (less than 10% inhibition)
3,CN(C)C(=O)[C@H](O)[C@@H](O)C(=O)Nc1ccc(-c2ccc(C(F)(F)F)cc2)cc1 [Compound 46],C (less than 10% inhibition)
4,CN(C)C(=O)[C@H](O)[C@@H](O)C(=O)N1CCN(c2ccc(-c3ccccc3)cc2)CC1 [Compound 47],B (10-30% inhibition)
5,CCCCc1ccc(NC(=O)[C@H](O)[C@@H](O)C(=O)N(C)C)cc1 [Compound 48],C (less than 10% inhibition)

# Same assay, conditions: concentration 0.39 (unit not given)
row,Structure (SMILES),LpxC enzyme assay rating (% inhibition at indicated concentrations)
1,CN(C)C(=O)[C@H](O)[C@@H](O)C(=O)n1ccc2cc(C#Cc3ccccc3)ccc21 [Compound 44],C (less than 10% inhibition)
2,CN(C)C(=O)[C@H](O)[C@@H](O)C(=O)Nc1ccc(-c2ccccc2)cc1 [Compound 45],C (less than 10% inhibition)
3,CN(C)C(=O)[C@H](O)[C@@H](O)C(=O)Nc1ccc(-c2ccc(C(F)(F)F)cc2)cc1 [Compound 46],C (less than 10% inhibition)
4,CN(C)C(=O)[C@H](O)[C@@H](O)C(=O)N1CCN(c2ccc(-c3ccccc3)cc2)CC1 [Compound 47],C (less than 10% inhibition)
5,CCCCc1ccc(NC(=O)[C@H](O)[C@@H](O)C(=O)N(C)C)cc1 [Compound 48],C (less than 10% inhibition)

# Same assay, conditions: concentration 0.78 (unit not given)
row,Structure (SMILES),LpxC enzyme assay rating (% inhibition at indicated concentrations)
1,CN(C)C(=O)[C@H](O)[C@@H](O)C(=O)n1ccc2cc(C#Cc3ccccc3)ccc21 [Compound 44],C (less than 10% inhibition)
2,CN(C)C(=O)[C@H](O)[C@@H](O)C(=O)Nc1ccc(-c2ccccc2)cc1 [Compound 45],C (less than 10% inhibition)
3,CN(C)C(=O)[C@H](O)[C@@H](O)C(=O)Nc1ccc(-c2ccc(C(F)(F)F)cc2)cc1 [Compound 46],C (less than 10% inhibition)
4,CN(C)C(=O)[C@H](O)[C@@H](O)C(=O)N1CCN(c2ccc(-c3ccccc3)cc2)CC1 [Compound 47],B (10-30% inhibition)
5,CCCCc1ccc(NC(=O)[C@H](O)[C@@H](O)C(=O)N(C)C)cc1 [Compound 48],C (less than 10% inhibition)

# Same assay, conditions: concentration 1.56 (unit not given)
row,Structure (SMILES),LpxC enzyme assay rating (% inhibition at indicated concentrations)
1,CN(C)C(=O)[C@H](O)[C@@H](O)C(=O)n1ccc2cc(C#Cc3ccccc3)ccc21 [Compound 44],C (less than 10% inhibition)
2,CN(C)C(=O)[C@H](O)[C@@H](O)C(=O)Nc1ccc(-c2ccccc2)cc1 [Compound 45],C (less than 10% inhibition)
3,CN(C)C(=O)[C@H](O)[C@@H](O)C(=O)Nc1ccc(-c2ccc(C(F)(F)F)cc2)cc1 [Compound 46],C (less than 10% inhibition)
4,CN(C)C(=O)[C@H](O)[C@@H](O)C(=O)N1CCN(c2ccc(-c3ccccc3)cc2)CC1 [Compound 47],C (less than 10% inhibition)
5,CCCCc1ccc(NC(=O)[C@H](O)[C@@H](O)C(=O)N(C)C)cc1 [Compound 48],C (less than 10% inhibition)

# Same assay, conditions: concentration 3.13 (unit not given)
row,Structure (SMILES),LpxC enzyme assay rating (% inhibition at indicated concentrations)
1,CN(C)C(=O)[C@H](O)[C@@H](O)C(=O)n1ccc2cc(C#Cc3ccccc3)ccc21 [Compound 44],B (10-30% inhibition)
2,CN(C)C(=O)[C@H](O)[C@@H](O)C(=O)Nc1ccc(-c2ccccc2)cc1 [Compound 45],C (less than 10% inhibition)
3,CN(C)C(=O)[C@H](O)[C@@H](O)C(=O)Nc1ccc(-c2ccc(C(F)(F)F)cc2)cc1 [Compound 46],C (less than 10% inhibition)
4,CN(C)C(=O)[C@H](O)[C@@H](O)C(=O)N1CCN(c2ccc(-c3ccccc3)cc2)CC1 [Compound 47],B (10-30% inhibition)
5,CCCCc1ccc(NC(=O)[C@H](O)[C@@H](O)C(=O)N(C)C)cc1 [Compound 48],B (10-30% inhibition)

# Same assay, conditions: concentration 6.25 (unit not given)
row,Structure (SMILES),LpxC enzyme assay rating (% inhibition at indicated concentrations)
1,CN(C)C(=O)[C@H](O)[C@@H](O)C(=O)n1ccc2cc(C#Cc3ccccc3)ccc21 [Compound 44],B (10-30% inhibition)
2,CN(C)C(=O)[C@H](O)[C@@H](O)C(=O)Nc1ccc(-c2ccccc2)cc1 [Compound 45],C (less than 10% inhibition)
3,CN(C)C(=O)[C@H](O)[C@@H](O)C(=O)Nc1ccc(-c2ccc(C(F)(F)F)cc2)cc1 [Compound 46],C (less than 10% inhibition)
4,CN(C)C(=O)[C@H](O)[C@@H](O)C(=O)N1CCN(c2ccc(-c3ccccc3)cc2)CC1 [Compound 47],B (10-30% inhibition)
5,CCCCc1ccc(NC(=O)[C@H](O)[C@@H](O)C(=O)N(C)C)cc1 [Compound 48],C (less than 10% inhibition)

# Same assay, conditions: concentration 12.50 (unit not given)
row,Structure (SMILES),LpxC enzyme assay rating (% inhibition at indicated concentrations)
1,CN(C)C(=O)[C@H](O)[C@@H](O)C(=O)n1ccc2cc(C#Cc3ccccc3)ccc21 [Compound 44],A (greater than 30% inhibition)
2,CN(C)C(=O)[C@H](O)[C@@H](O)C(=O)Nc1ccc(-c2ccccc2)cc1 [Compound 45],C (less than 10% inhibition)
3,CN(C)C(=O)[C@H](O)[C@@H](O)C(=O)Nc1ccc(-c2ccc(C(F)(F)F)cc2)cc1 [Compound 46],B (10-30% inhibition)
4,CN(C)C(=O)[C@H](O)[C@@H](O)C(=O)N1CCN(c2ccc(-c3ccccc3)cc2)CC1 [Compound 47],B (10-30% inhibition)
5,CCCCc1ccc(NC(=O)[C@H](O)[C@@H](O)C(=O)N(C)C)cc1 [Compound 48],B (10-30% inhibition)

# Same assay, conditions: concentration 25 (unit not given)
row,Structure (SMILES),LpxC enzyme assay rating (% inhibition at indicated concentrations)
1,CN(C)C(=O)[C@H](O)[C@@H](O)C(=O)n1ccc2cc(C#Cc3ccccc3)ccc21 [Compound 44],A (greater than 30% inhibition)
2,CN(C)C(=O)[C@H](O)[C@@H](O)C(=O)Nc1ccc(-c2ccccc2)cc1 [Compound 45],C (less than 10% inhibition)
3,CN(C)C(=O)[C@H](O)[C@@H](O)C(=O)Nc1ccc(-c2ccc(C(F)(F)F)cc2)cc1 [Compound 46],B (10-30% inhibition)
4,CN(C)C(=O)[C@H](O)[C@@H](O)C(=O)N1CCN(c2ccc(-c3ccccc3)cc2)CC1 [Compound 47],C (less than 10% inhibition)
5,CCCCc1ccc(NC(=O)[C@H](O)[C@@H](O)C(=O)N(C)C)cc1 [Compound 48],C (less than 10% inhibition)

# Same assay, conditions: concentration 50 (unit not given)
row,Structure (SMILES),LpxC enzyme assay rating (% inhibition at indicated concentrations)
1,CN(C)C(=O)[C@H](O)[C@@H](O)C(=O)n1ccc2cc(C#Cc3ccccc3)ccc21 [Compound 44],A (greater than 30% inhibition)
2,CN(C)C(=O)[C@H](O)[C@@H](O)C(=O)Nc1ccc(-c2ccccc2)cc1 [Compound 45],C (less than 10% inhibition)
3,CN(C)C(=O)[C@H](O)[C@@H](O)C(=O)Nc1ccc(-c2ccc(C(F)(F)F)cc2)cc1 [Compound 46],A (greater than 30% inhibition)
4,CN(C)C(=O)[C@H](O)[C@@H](O)C(=O)N1CCN(c2ccc(-c3ccccc3)cc2)CC1 [Compound 47],B (10-30% inhibition)
5,CCCCc1ccc(NC(=O)[C@H](O)[C@@H](O)C(=O)N(C)C)cc1 [Compound 48],B (10-30% inhibition)

# From US7553864B2, “Compounds for the treatment of inflammatory disorders and microbial diseases” (Schering Corporation, priority 2005, dated 2009)
